Columns and labels:
Type in all cases: in vivo
[1] = test system: wild oat (Avena fatua); test: Test C postemergence greenhouse test, plant response rating 0-100; conditions: for Plant response rating, Oat, Wild: scale 0 to 100
Procedure, shortened: (§1)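 Formulated compounds applied postemergence; plants 1- to 4-leaf stage. Evaluated visually vs. untreated controls after roughly two weeks (13–15 d) under greenhouse conditions; 100 denotes complete control.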

[2] = test system: kochia (Kochia scoparia); test: as above; conditions: for Plant response rating, Kochia: scale 0 to 100
Procedure, shortened: as §1

[3] = test system: chickweed (common chickweed, Stellaria media); test: as above; conditions: for Plant response rating, Chickweed: scale 0 to 100
Procedure, shortened: as §1

[4] = test system: corn (Zea mays); test: Test A pre-/postemergence greenhouse herbicide test, visual injury rating 0-100
Procedure, shortened: (§2)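 Pre + post at same time; soil = loam/sand. Post stage 1–2 leaf, 2–10 cm. Formulation: non-phytotoxic solvent mix w/ surfactant. Greenhouse ~10 d, visual rating vs untreated, 0 (no effect)–100 (complete control).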

[5] = test system: large (Lg) crabgrass (Digitaria sanguinalis); test: as above
Procedure, shortened: as §2

[6] = test system: morningglory (Ipomoea spp.); test: as above
Procedure, shortened: as §2

[7] = test system: wheat (Triticum aestivum); test: as above
Procedure, shortened: as §2

[8] = test system: giant foxtail (Setaria faberii); test: as above
Procedure, shortened: as §2

[9] = test system: velvetleaf (Abutilon theophrasti); test: as above
Procedure, shortened: as §2

[10] = test system: barnyardgrass (Echinochloa crus-galli); test: as above
Procedure, shortened: as §2

[11] = test system: pigweed (Amaranthus retroflexus); test: as above
Procedure, shortened: as §2

[12] = test system: oilseed rape (Brassica napus); test: Test C pre-/postemergence greenhouse test, plant response rating 0-100; conditions: Postemergence; for Plant response rating, Oilseed Rape: scale 0 to 100
Procedure, shortened: (§3)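 Scores run from 0, no effect, to 100, complete control, assigned by eye after treated plants and controls spent 13 to 15 days in a greenhouse. Soil-applied treatment went onto freshly sown seed in loam and sand; foliar treatment hit seedlings at the 1- to 4-leaf stage.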

[13] = test system: galium (catchweed bedstraw, Galium aparine); test: as above; conditions: Postemergence; for Plant response rating, Galium: scale 0 to 100
Procedure, shortened: as §3

[14] = test system: morningglory (Ipomoea coccinea); test: as above; conditions: Postemergence; for Plant response rating, Morningglory: scale 0 to 100
Procedure, shortened: as §3

O=C(c1ccccc1)c1cn(S(=O)(=O)CCl)nc1-c1cc(Cl)cc(Cl)c1 [Compound 1]
Plant response rating (0 to 100), Oat, Wild ([1]; 62 g ai/ha): 0
Plant response rating (0 to 100), Oat, Wild ([1]; 125 g ai/ha): 0
Plant response rating, Oat, Wild ([1]; 250 g ai/ha): 0
Plant response rating (0 to 100), Kochia ([2]; 62 g ai/ha): 80
Plant response rating (0 to 100), Kochia ([2]; 125 g ai/ha): 85
Plant response rating, Kochia ([2]; 250 g ai/ha): 90
Plant response rating (0 to 100), Chickweed ([3]; 31 g ai/ha): 90
Plant response rating (0 to 100), Chickweed ([3]; 62 g ai/ha): 100
Plant response rating (0 to 100), Chickweed ([3]; 125 g ai/ha): 100
Plant response rating, Chickweed ([3]; 250 g ai/ha): 100
Plant response rating (0 to 100 scale), Corn ([4]; Postemergence, 125 g ai/ha): 0
Plant response rating (0 to 100 scale), Corn ([4]; Postemergence, 500 g ai/ha): 0
Corn plant response rating (0 = no effect, 100 = complete control) ([4]; Preemergence, 125 g ai/ha): 0
Plant response rating (0 to 100 scale), Corn ([4]; Preemergence, 500 g ai/ha): 0
Plant response rating (0 to 100 scale), Crabgrass, Large ([5]; Postemergence, 125 g ai/ha): 0
Plant response rating (0 to 100 scale), Crabgrass, Large ([5]; Postemergence, 500 g ai/ha): 0
Crabgrass, Large plant response rating (0 = no effect, 100 = complete control) ([5]; Preemergence, 125 g ai/ha): 0
Plant response rating (0 to 100 scale), Crabgrass, Large ([5]; Preemergence, 500 g ai/ha): 0
Plant response rating (0 to 100 scale), Morningglory ([6]; Postemergence, 125 g ai/ha): 0
Plant response rating (0 to 100 scale), Morningglory ([6]; Postemergence, 500 g ai/ha): 0
Morningglory plant response rating (0 = no effect, 100 = complete control) ([6]; Preemergence, 125 g ai/ha): 0
Plant response rating (0 to 100 scale), Morningglory ([6]; Preemergence, 500 g ai/ha): 0
Plant response rating (0 to 100 scale), Wheat ([7]; Postemergence, 125 g ai/ha): 0
Plant response rating (0 to 100 scale), Wheat ([7]; Postemergence, 500 g ai/ha): 0
Wheat plant response rating (0 = no effect, 100 = complete control) ([7]; Preemergence, 125 g ai/ha): 0
Plant response rating (0 to 100 scale), Wheat ([7]; Preemergence, 500 g ai/ha): 0
Plant response rating (0 to 100 scale), Foxtail, Giant ([8]; Postemergence, 125 g ai/ha): 0
Plant response rating (0 to 100 scale), Foxtail, Giant ([8]; Postemergence, 500 g ai/ha): 0
Foxtail, Giant plant response rating (0 = no effect, 100 = complete control) ([8]; Preemergence, 125 g ai/ha): 0
Plant response rating (0 to 100 scale), Foxtail, Giant ([8]; Preemergence, 500 g ai/ha): 0
Plant response rating (0 to 100 scale), Velvetleaf ([9]; Postemergence, 125 g ai/ha): 90
Plant response rating (0 to 100 scale), Velvetleaf ([9]; Postemergence, 500 g ai/ha): 90
Velvetleaf plant response rating (0 = no effect, 100 = complete control) ([9]; Preemergence, 125 g ai/ha): 20
Plant response rating (0 to 100 scale), Velvetleaf ([9]; Preemergence, 500 g ai/ha): 20
Plant response rating (0 to 100 scale), Barnyardgrass ([10]; Postemergence, 125 g ai/ha): 0
Plant response rating (0 to 100 scale), Barnyardgrass ([10]; Postemergence, 500 g ai/ha): 0
Barnyardgrass plant response rating (0 = no effect, 100 = complete control) ([10]; Preemergence, 125 g ai/ha): 0
Plant response rating (0 to 100 scale), Barnyardgrass ([10]; Preemergence, 500 g ai/ha): 0
Plant response rating (0 to 100 scale), Pigweed ([11]; Postemergence, 125 g ai/ha): 80
Plant response rating (0 to 100 scale), Pigweed ([11]; Postemergence, 500 g ai/ha): 90
Pigweed plant response rating (0 = no effect, 100 = complete control) ([11]; Preemergence, 125 g ai/ha): 40
Plant response rating (0 to 100 scale), Pigweed ([11]; Preemergence, 500 g ai/ha): 80
Plant response rating (0 to 100), Oilseed Rape ([12]; 62 g ai/ha): 50
Plant response rating (0 to 100), Oilseed Rape ([12]; 125 g ai/ha): 80
Plant response rating, Oilseed Rape ([12]; 250 g ai/ha): 95
Plant response rating (0 to 100), Galium ([13]; 31 g ai/ha): 0
Plant response rating (0 to 100), Galium ([13]; 62 g ai/ha): 0
Plant response rating (0 to 100), Galium ([13]; 125 g ai/ha): 0
Plant response rating, Galium ([13]; 250 g ai/ha): 20
Plant response rating (0 to 100), Morningglory ([14]; 62 g ai/ha): 0
Plant response rating (0 to 100), Morningglory ([14]; 125 g ai/ha): 0
Plant response rating, Morningglory ([14]; 250 g ai/ha): 0

O=C(c1ccccc1)c1cn(S(=O)(=O)C(F)(F)F)nc1-c1cc(Cl)cc(Cl)c1 [Compound 2]
Plant response rating (0 to 100), Oat, Wild ([1]; 62 g ai/ha): 0
Plant response rating (0 to 100), Oat, Wild ([1]; 125 g ai/ha): 0
Plant response rating, Oat, Wild ([1]; 250 g ai/ha): 0
Plant response rating, Oat, Wild ([1]; 500 g ai/ha): 0
Plant response rating (0 to 100), Kochia ([2]; 62 g ai/ha): 80
Plant response rating (0 to 100), Kochia ([2]; 125 g ai/ha): 85
Plant response rating, Kochia ([2]; 250 g ai/ha): 90
Plant response rating, Kochia ([2]; 500 g ai/ha): 95
Plant response rating (0 to 100), Chickweed ([3]; 62 g ai/ha): 98
Plant response rating (0 to 100), Chickweed ([3]; 125 g ai/ha): 100
Plant response rating, Chickweed ([3]; 250 g ai/ha): 100
Plant response rating, Chickweed ([3]; 500 g ai/ha): 100
Plant response rating (0 to 100 scale), Corn ([4]; Postemergence, 125 g ai/ha): 0
Plant response rating (0 to 100 scale), Corn ([4]; Postemergence, 500 g ai/ha): 0
Corn plant response rating (0 = no effect, 100 = complete control) ([4]; Preemergence, 125 g ai/ha): 0
Plant response rating (0 to 100 scale), Corn ([4]; Preemergence, 500 g ai/ha): 0
Plant response rating (0 to 100 scale), Crabgrass, Large ([5]; Postemergence, 125 g ai/ha): 0
Plant response rating (0 to 100 scale), Crabgrass, Large ([5]; Postemergence, 500 g ai/ha): 0
Crabgrass, Large plant response rating (0 = no effect, 100 = complete control) ([5]; Preemergence, 125 g ai/ha): 0
Plant response rating (0 to 100 scale), Crabgrass, Large ([5]; Preemergence, 500 g ai/ha): 0
Plant response rating (0 to 100 scale), Morningglory ([6]; Postemergence, 125 g ai/ha): 0
Plant response rating (0 to 100 scale), Morningglory ([6]; Postemergence, 500 g ai/ha): 0
Morningglory plant response rating (0 = no effect, 100 = complete control) ([6]; Preemergence, 125 g ai/ha): 0
Plant response rating (0 to 100 scale), Morningglory ([6]; Preemergence, 500 g ai/ha): 0
Plant response rating (0 to 100 scale), Wheat ([7]; Postemergence, 125 g ai/ha): 0
Plant response rating (0 to 100 scale), Wheat ([7]; Postemergence, 500 g ai/ha): 0
Wheat plant response rating (0 = no effect, 100 = complete control) ([7]; Preemergence, 125 g ai/ha): 0
Plant response rating (0 to 100 scale), Wheat ([7]; Preemergence, 500 g ai/ha): 0
Plant response rating (0 to 100 scale), Foxtail, Giant ([8]; Postemergence, 125 g ai/ha): 0
Plant response rating (0 to 100 scale), Foxtail, Giant ([8]; Postemergence, 500 g ai/ha): 0
Foxtail, Giant plant response rating (0 = no effect, 100 = complete control) ([8]; Preemergence, 125 g ai/ha): 0
Plant response rating (0 to 100 scale), Foxtail, Giant ([8]; Preemergence, 500 g ai/ha): 0
Plant response rating (0 to 100 scale), Velvetleaf ([9]; Postemergence, 125 g ai/ha): 90
Plant response rating (0 to 100 scale), Velvetleaf ([9]; Postemergence, 500 g ai/ha): 100
Velvetleaf plant response rating (0 = no effect, 100 = complete control) ([9]; Preemergence, 125 g ai/ha): 20
Plant response rating (0 to 100 scale), Velvetleaf ([9]; Preemergence, 500 g ai/ha): 100
Plant response rating (0 to 100 scale), Barnyardgrass ([10]; Postemergence, 125 g ai/ha): 0
Plant response rating (0 to 100 scale), Barnyardgrass ([10]; Postemergence, 500 g ai/ha): 0
Barnyardgrass plant response rating (0 = no effect, 100 = complete control) ([10]; Preemergence, 125 g ai/ha): 0
Plant response rating (0 to 100 scale), Barnyardgrass ([10]; Preemergence, 500 g ai/ha): 0
Plant response rating (0 to 100 scale), Pigweed ([11]; Postemergence, 125 g ai/ha): 90
Plant response rating (0 to 100 scale), Pigweed ([11]; Postemergence, 500 g ai/ha): 100
Pigweed plant response rating (0 = no effect, 100 = complete control) ([11]; Preemergence, 125 g ai/ha): 50
Plant response rating (0 to 100 scale), Pigweed ([11]; Preemergence, 500 g ai/ha): 100
Plant response rating (0 to 100), Oilseed Rape ([12]; 62 g ai/ha): 70
Plant response rating (0 to 100), Oilseed Rape ([12]; 125 g ai/ha): 70
Plant response rating, Oilseed Rape ([12]; 250 g ai/ha): 90
Plant response rating, Oilseed Rape ([12]; 500 g ai/ha): 90
Plant response rating (0 to 100), Galium ([13]; 62 g ai/ha): 0
Plant response rating (0 to 100), Galium ([13]; 125 g ai/ha): 0
Plant response rating, Galium ([13]; 250 g ai/ha): 50
Plant response rating, Galium ([13]; 500 g ai/ha): 50
Plant response rating (0 to 100), Morningglory ([14]; 62 g ai/ha): 0
Plant response rating (0 to 100), Morningglory ([14]; 125 g ai/ha): 0
Plant response rating, Morningglory ([14]; 250 g ai/ha): 0
Plant response rating, Morningglory ([14]; 500 g ai/ha): 10

Reference: US10167262B2, “Herbicidal substituted 3-arylpyrazoles” (FMC CORPORATION, priority 2014, dated 2019)
